US20140135359A1, “METHODS OF DESIGNING, PREPARING, AND USING NOVEL PROTONOPHORES” (priority 2012, published 2014)

System: differentiated C2C12 skeletal muscle cells
Assay: 3H-deoxyglucose uptake in C2C12 myotubes
Assay type: cell-based, murine
Details: 18 h
Protocol: 2.3 ^3H-deoxyglucose uptake in C2C12 myotubes: Cell culture and the ^3H-deoxyglucose uptake assay were performed as previously described [34B, 35B, 37B]. Briefly, C2C12 murine skeletal myoblasts (American Type Culture Collection; Manassas, Va.) were cultured under standard conditions in 12-well plates. Cells were proliferated to 80% confluence in high-glucose Dulbecco's modified Eagle's medium (DMEM; Wisent; St-Bruno, QC) supplemented with 10% fetal bovine serum (FBS; Wisent), 10% horse serum (HS), and antibiotics. Differentiation into multinucleated myotubes was then promoted with DMEM supplemented with 2% HS and antibiotics. All uptake assays were performed on 7-day differentiated cells, and treatments were timed accordingly. […] DMSO concentration was fixed at 0.1% for all conditions. Cells were routinely inspected for abnormal morphology by phase-contrast microscopy at the conclusion of the treatment period. […] Cells were then washed twice in glucose-free KPB at 37° C. before incubation for exactly 10 min at 37° C. in glucose-free KPB containing 0.5 μCi/ml 2-deoxy-D-[1-^3H]glucose (Amersham Biosciences; Buckinghamshire, UK). Cells were then placed on ice and immediately washed three times with ice-cold KPB. Cells were inspected for monolayer detachment and lysed in 0.1 N NaOH with scraping. […] Three independent experiments of 18 h treatment duration were performed for each of the selected test compounds, with three replicates per condition per experiment. Vehicle-control and 50 μM 2,4-dinitrophenol conditions were included on every plate. Some compounds were also tested at 50 μM under the following conditions: a 15 h treatment with vehicle only followed by a 3 h treatment with the test compound; a 15 h treatment with the test compound followed by a 3 h repeat treatment.
Protocol for ^3H-deoxyglucose uptake assay in C2C12 or other skeletal muscle cells; C2C12 murine skeletal myoblasts (American Type Culture Collection; Manassas, Va.) may be cultured under standard conditions in 12-well plates. Cells may be proliferated to 80% confluence in high-glucose Dulbecco's modified Eagle's medium (DMEM) supplemented with 10% fetal bovine serum (FBS), 10% horse serum (HS), and antibiotics. Differentiation into multinucleated myotubes may be then promoted with DMEM supplemented with 2% HS and antibiotics. All uptake assays may be performed on 7-day differentiated cells, and treatment onset may be timed accordingly. Cells may be treated with reference substances (such as metformin (100 or 400 μM), phenformin (100 μM), or 2,4-dinitrophenol 10-100 μM), compounds described herein, or vehicle (DMSO) in complete differentiation medium. DMSO concentration may be fixed at 0.1% for all conditions. Cells may be routinely inspected for abnormal morphology by phase-contrast microscopy at the conclusion of the treatment period. […] Cells may be then washed twice in glucose-free KPB at 37° C. before incubation for exactly 10 min at 37° C. in glucose-free KPB containing 0.5 μCi/ml 2-deoxy-D-[1-3H]glucose (Amersham Biosciences; Buckinghamshire, UK). Cells may be then placed on ice and immediately washed three times with ice-cold KPB. Cells may be inspected for monolayer detachment and lysed in 0.1 N NaOH with scraping. […] Three or more independent experiments of 18 hours treatment duration may be performed for each test compound, with three or more replicates per condition per experiment. Vehicle-control and 2,4-dinitrophenol conditions may be included on every plate for the purpose of standardizing.

O=[N+]([O-])c1ccc(O)c([N+](=O)[O-])c1 [2,4-dinitrophenol]
increase in basal glucose uptake (25 μM): 66%
increase in basal glucose uptake (50 μM): 119%
increase in basal glucose uptake (100 μM): 169%
